# Laboratory results as given in patent US20070116736A1, “Local vascular delivery of PI3 kinase inhibitors alone or in combination with sirolimus to prevent restinosis following vascular injury” (priority 2005, published 2007).
# Tests used:
# [1] = drug concentration in liquid formulations by liquid chromatography / HPLC assay; assay type: physicochemical
# [2] = test system: human coronary artery smooth muscle cell; test: MTS cytotoxicity assay; assay type: cell-based; settings: concentrations up to 30,000.00 nanomolar
# Source text: Typically, a control is utilized to determine baseline toxicity.
# [3] = test system: human coronary artery smooth muscle cells; settings: synchronized cells, two percent fetal bovine serum; for effect of addition of the agent on the percent inhibition of rapamycin: topotecan zero to three hundred nanomolar, etoposide zero to eight hundred nanomolar, Panzem zero to 100 micromolar
# [4] = porcine drug elution PK study of dual drug eluting coating; assay type: in vivo; settings: after eight (8) days of implantation, pig coronary arteries; single layer coating of FIG. 83
# Source text: Another critical parameter for the performance of the thrombus resistance of a device coated with cilostazol is the duration of the drug release from the coating. This is of particular significance in the two weeks after device implantation. In the porcine drug elution PK studies of the dual drug eluting coating, both cilostazol and sirolius were slowly released from the coating, resulting in a sustained drug release profile. The purpose of the porcine PK study is to assess the local pharmacokinetics of a drug eluting stent at a given implantation time. Normally three stents are implanted in three different coronary arteries in a pig for a given time point and then retrieved for total drug recovery analysis. The stents are retrieved at predetermined time points; namely, 1, 3 and 8 days. The stents are extracted and the total amount of drug remaining on the stents is determined by analysis utilizing HPLC (high performance liquid chromatography) for total drug amount. The difference between the original amount of drug on the stent and the amount of drug retrieved at a given time represents the amount of drug released in that period. The continuous release of drug into surrounding arterial tissue is what prevents the neointimal growth and restenosis in the coronary artery. A normal plot represents the percentage of total drug released (%, y-axis) vs. time of implantation (day, x-axis). […]
# [5] = in vitro release of sirolimus and cilostazol from stent coating; assay type: physicochemical; settings: single layer coating of FIG. 83
# [6] = test system: human smooth muscle cells; test: Cladribine Example, PDGF-stimulated cell proliferation (cell count), smooth muscle cells; assay type: cell-based; settings: from IC50 values
# Description: To assess the ability of cladribine to prevent cell proliferation, human smooth muscle or endothelial cells (Clonetics, Walkersville, Md.) were seeded at a density of 2000 cells/cm^2 (approximately 3600 cells/well) into each well of 12-well plates and cultured with 1.5 ml of growth medium containing five percent fetal calf serum (FCS). After twenty-four hours, the growth medium was changed and fresh medium containing 10 ng/ml platelet-derived growth factor AB (PDGF AB; LIFE Technologies), as well as various concentrations of cladribine (0.001-10,000 nM) were added with triplicate wells. Medium was replaced with fresh cladribine-containing medium after three days. On day six, cells were detached by trypsinization to yield a cell suspension, lightly centrifuged to pellet and then counted manually using a Neubauer hemocytometer system. Cell viability was assessed by trypan blue exclusion.
# [7] = test system: human coronary artery smooth muscle cells; test: anti-proliferative activity in non-synchronized cultured human coronary artery smooth muscle cells stimulated with two percent fetal bovine serum; assay type: cell-based; settings: for effect of addition of the agent on the anti-proliferative activity of rapamycin: mycophenolic acid zero to one thousand nanomolar, cladribine zero to nine hundred nanomolar
# Source text: The multiple curves represent various concentrations of mycophenolic acid ranging from zero to one thousand nanomolar concentrations.
# The multiple curves represent various concentrations of cladribine ranging from zero to nine hundred nanomolar concentrations.
# cell viability = cell viability assay; assay type: cell-based
# tumor cell lines = tumor cell lines (Woo et al. 2002); cited from earlier work
# [8] = test system: human coronary artery smooth muscle cell; test: in vitro cell culture study, coronary artery smooth muscle cell proliferation (trichostatin A); assay type: cell-based
# Source text: FIG. 51 is a graph of the inhibition of coronary artery smooth muscle cells by trichostatin A in a cell culture study.
structure (smiles),measurement,setting,value
CO[C@H]1C[C@@H]2CC[C@@H](C)[C@@](O)(O2)C(=O)C(=O)N2CCCC[C@H]2C(=O)O[C@H]([C@H](C)C[C@@H]2CC[C@@H](OC(=O)C(C)(CO)CO)[C@H](OC)C2)CC(=O)[C@H](C)/C=C(\C)[C@@H](O)[C@@H](OC)C(=O)[C@H](C)C[C@H](C)/C=C/C=C/C=C/1C [CCI-779],concentration of CCI-779 in the final solution (HPLC assay),"[1]; Vitamin E TPGS, water, ethanol less than two percent",15000 µg/mL
"COc1cc2c(cc1O)CC[C@@H]1[C@@H]2CC[C@]2(C)[C@@H](O)CC[C@@H]12 [Panzem®, 2-methoxyestradiol]",human coronary artery smooth muscle cell survival (MTS assay),[2],do not reduce human coronary artery smooth muscle cell survival
same,inhibition of human coronary artery smooth muscle cell proliferation in vitro,[3],extremely effective inhibitor
same,effect of addition of the agent on the percent inhibition of rapamycin,[3],increases the percent of inhibition of rapamycin alone
"O=C1CCc2cc(OCCCCc3nnnn3C3CCCCC3)ccc2N1 [cilostazol, 6[4-(1-cyclohexyl-1H-tetrazol-5-yl)-butoxy]-3,4-dihydro-2-(1H)-quinolinone]",drug remaining in the drug coating,[4],~80%
same,in vitro release from coating,[5],~35%
"Nc1nc(Cl)nc2c1ncn2[C@H]1C[C@H](O)[C@@H](CO)O1 [cladribine, 2-chlorodeoxyadenosine]",potency as inhibitor of smooth muscle cells relative to endothelial cells,[6],approximately twice
same,inhibition of human coronary artery smooth muscle cell proliferation,[7],completely inhibits
same,effect of addition of the agent on the anti-proliferative activity of rapamycin,[7],increases the percent inhibition of rapamycin alone
COc1cc([C@@H]2c3cc4c(cc3[C@@H](O[C@@H]3O[C@@H]5CO[C@@H](C)O[C@H]5[C@H](O)[C@H]3O)[C@H]3COC(=O)[C@H]23)OCO4)cc(OC)c1O [etoposide],cytotoxicity in cell viability assay,cell viability; at concentrations up to ten micromolar,non-cytotoxic
same,effect of addition of the agent on the percent inhibition of rapamycin,[3],increases the percent inhibition of rapamycin alone
COc1c(C)c2c(c(O)c1C/C=C(\C)CCC(=O)O)C(=O)OC2 [mycophenolic acid],effect of addition of the agent on the anti-proliferative activity of rapamycin,[7],potentiates the anti-proliferative activity of rapamycin
CO[C@H]1C[C@@H]2CC[C@@H](C)[C@@](O)(O2)C(=O)C(=O)N2CCCC[C@H]2C(=O)O[C@H]([C@H](C)C[C@@H]2CC[C@@H](O)[C@H](OC)C2)CC(=O)[C@H](C)/C=C(\C)[C@@H](O)[C@@H](OC)C(=O)[C@H](C)C[C@H](C)/C=C/C=C/C=C/1C [rapamycin],concentration in formulation relative to solubility of sirolimus in water,[1]; 4 mg/ml PEG 200 formulation,four hundred to about one thousand
same,drug remaining in the drug coating,[4],~80%
CC[C@@]1(O)C(=O)OCc2c1cc1n(c2=O)Cc2cc3c(CN(C)C)c(O)ccc3nc2-1 [topotecan],cytotoxicity in cell viability assay,cell viability; at concentrations up to one micromolar,non-cytotoxic
same,effect of addition of the agent on the percent inhibition of rapamycin,[3],increases the percent inhibition of rapamycin alone
CC(/C=C/C(=O)NO)=C\[C@@H](C)C(=O)c1ccc(N(C)C)cc1 [trichostatin A],anti-proliferative IC50,tumor cell lines,low nM range
same,IC50,"[8]; human coronary artery smooth muscle cell proliferation, read-out: anti-proliferative IC50",~6 nM
same,inhibition of human coronary artery smooth muscle cell proliferation,[8]; in vitro cell culture,completely inhibit
